Our source for the IC50 values is BindingDB's records for doi:10.1021/jm00148a012 (1985).

This assay has as its target Gamma-aminobutyric acid type B receptor subunit 1/2 (UniProt Q9Z0U4+O88871). As to the kind of experiment: Displacement of [3H]baclofen from Gamma-aminobutyric acid type B receptor in rat brain membranes. (In a radioligand displacement assay an active substance lowers the binding of a labelled ligand.)

Sequence of Gamma-aminobutyric acid type B receptor subunit 1/2 (Q9Z0U4 whole entry): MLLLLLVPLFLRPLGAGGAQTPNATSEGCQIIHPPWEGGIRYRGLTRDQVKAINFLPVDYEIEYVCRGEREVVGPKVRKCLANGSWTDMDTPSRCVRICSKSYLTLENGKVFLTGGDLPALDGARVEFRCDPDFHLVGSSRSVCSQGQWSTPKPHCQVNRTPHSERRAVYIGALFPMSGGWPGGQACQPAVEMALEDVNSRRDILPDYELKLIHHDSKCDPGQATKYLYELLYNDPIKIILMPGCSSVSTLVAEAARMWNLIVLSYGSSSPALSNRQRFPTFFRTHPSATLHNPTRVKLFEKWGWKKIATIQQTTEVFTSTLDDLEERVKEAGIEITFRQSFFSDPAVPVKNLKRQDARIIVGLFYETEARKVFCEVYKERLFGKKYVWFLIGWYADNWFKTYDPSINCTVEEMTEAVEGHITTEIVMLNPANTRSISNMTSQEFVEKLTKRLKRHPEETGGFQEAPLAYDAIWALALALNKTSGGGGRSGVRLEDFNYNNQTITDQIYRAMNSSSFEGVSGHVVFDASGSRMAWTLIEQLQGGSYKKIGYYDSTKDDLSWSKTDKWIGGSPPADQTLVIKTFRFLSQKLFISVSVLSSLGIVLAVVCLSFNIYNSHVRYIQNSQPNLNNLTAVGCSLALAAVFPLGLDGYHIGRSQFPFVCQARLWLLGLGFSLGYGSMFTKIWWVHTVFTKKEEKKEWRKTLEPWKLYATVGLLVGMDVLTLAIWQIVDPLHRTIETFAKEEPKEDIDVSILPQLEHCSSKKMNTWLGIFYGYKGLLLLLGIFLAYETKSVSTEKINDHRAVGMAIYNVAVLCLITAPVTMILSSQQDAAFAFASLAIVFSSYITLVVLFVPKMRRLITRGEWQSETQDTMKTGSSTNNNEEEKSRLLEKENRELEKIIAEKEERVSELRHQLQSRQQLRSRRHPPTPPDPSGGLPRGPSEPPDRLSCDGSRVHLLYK
Sequence of Gamma-aminobutyric acid type B receptor subunit 1/2 (O88871 whole entry): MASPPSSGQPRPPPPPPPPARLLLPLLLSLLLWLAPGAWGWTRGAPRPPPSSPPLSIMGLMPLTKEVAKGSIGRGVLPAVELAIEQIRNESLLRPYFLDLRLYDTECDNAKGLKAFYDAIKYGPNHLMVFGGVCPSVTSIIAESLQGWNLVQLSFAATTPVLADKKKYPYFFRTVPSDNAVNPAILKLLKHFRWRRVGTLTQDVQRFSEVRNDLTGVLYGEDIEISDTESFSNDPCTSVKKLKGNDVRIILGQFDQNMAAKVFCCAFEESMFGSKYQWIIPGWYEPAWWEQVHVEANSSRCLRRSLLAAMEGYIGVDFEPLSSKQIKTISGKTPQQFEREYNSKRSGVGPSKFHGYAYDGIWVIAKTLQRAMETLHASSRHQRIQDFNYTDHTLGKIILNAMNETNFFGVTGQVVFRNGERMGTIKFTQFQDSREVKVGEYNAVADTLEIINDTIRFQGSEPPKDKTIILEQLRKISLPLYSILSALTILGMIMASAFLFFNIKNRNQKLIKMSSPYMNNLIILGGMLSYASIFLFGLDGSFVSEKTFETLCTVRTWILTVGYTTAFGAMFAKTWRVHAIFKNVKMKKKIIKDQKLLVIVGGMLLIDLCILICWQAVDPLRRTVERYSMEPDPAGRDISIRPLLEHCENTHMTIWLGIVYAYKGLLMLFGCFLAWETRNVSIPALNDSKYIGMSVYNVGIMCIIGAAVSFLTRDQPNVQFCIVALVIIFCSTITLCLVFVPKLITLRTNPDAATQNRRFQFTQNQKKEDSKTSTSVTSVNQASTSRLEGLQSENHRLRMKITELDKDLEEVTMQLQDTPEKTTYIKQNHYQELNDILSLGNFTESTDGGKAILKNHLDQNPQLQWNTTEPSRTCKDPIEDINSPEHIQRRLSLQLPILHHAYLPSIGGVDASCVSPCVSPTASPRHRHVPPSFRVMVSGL

By IC50 is commonly meant the concentration that gives 50% inhibition. A low value points to inhibition by little substance. Turning to `NCC1CC(=O)CC(=O)C1`, the IC50 was greater than 100 µM.
